According to patent EP0394553A2, “Use of fluorine containing pyridone carboxylic acid derivatives for preparing a medicament for the treatment of HIV infections” (DAIICHI PHARMACEUTICAL CO., LTD., priority 1989, dated 1990):
Where two headings read alike, the source gives them in different places.

How the values were obtained:
[1] = test system: HIV (LAV 1); assay: microbe, parasite or virus in culture; settings: for Viable cell count / Viral antigen-positive cell percentage: 10 mcg/ml; for viability at 1 µg/mL / viability at 2.5 µg/mL / viability at 5 µg/mL / viability at 10 µg/mL: Human immunodeficiency virus 1, CCRF-CEM
Protocol: Human T cell-derived, T4 antigen-positive CEM cells (provided by the Institut Pasteur, France) were used as host cells of HIV. Cell culture was carried out in a carbon dioxide-containing atmosphere in an incubator maintained at 37°C according to a conventional method [cf. […] The culture supernatant (5×10⁶ TCID₅₀/ml) obtained by subjecting CEM cells to HIV (LAV 1) infection and stored at -70°C was used as the HIV source.
The medium for cell culture (10 ml) placed in a plastic culture flask (25 cm²) was inoculated with CEM cells at a cell density of 2.5×10⁵ cells/ml. After 3 days of incubation, the culture was transferred to a 15-ml centrifuge tube and subjected to centrifugation at 1,000 revolutions per minute for 5 minutes for sedimentation of cells and removal of the culture medium.
The stock viral suspension was added to the host cells thus prepared to an MOI of 0.05 and the mixture was maintained at 37°C for 90 minutes with stirring at 30-minute intervals for viral adsorption. The medium was added to HIV-infected cells to a cell density of 5.0×10⁵ cells/ml to give an HIV-infected cell suspension.
A mixture (1.0 ml) of the three constituents mentioned below was added to each well of a 24-well plastic culture plate and the test substance final concentration was adjusted to 10 mcg/ml, 5 mcg/ml, 2.5 mcg/ml or 1 mcg/ml. The "no addition" wells (0 mcg/ml) served as controls.
After 4 days of incubation following viral infection, the cells in each well on the 24-well culture plate were suspended uniformly by pipetting and a 0.5-ml portion of the suspension was separated. A 2.0-ml portion of test substance-free fresh medium was added to the remaining 0.5-ml portion of the cell suspension, followed by incubation.
Seven days after viral infection, pipetting was performed to give a uniform cell suspension in each well and a 0.5-ml portion of the suspension was separated.
Incubation was continued and, 10 days after viral infection, a uniform cell suspension was produced in the same manner in each well and a 1.5-ml portion thereof was separated. A fresh 2.0-ml portion of the medium free of (or containing) the test substance was added to the well, followed by further incubation.
Fifteen days after viral infection, the cells in each well were suspended uniformly in the same manner in the medium and a 2.0-ml portion of the suspension was separated. A fresh 2.0-ml portion of the medium free of (or containing) the test substance was added to the remaining 0.5 ml of the cell suspension and incubation was continued.
Medium exchange was performed in the same manner 20 days and 25 days after viral infection.
The cell suspensions collected 4 days, 7 days, 10 days, 20 days and 30 days after viral infection were tested for viable cell count and viable cell percentage by trypan blue staining. At the same time, viral antigen-positive cell percentage determination was carried out by immunofluorescence using an anti-HIV antiserum isolated from a healthy carrier of HIV.
The numerical values given each is the mean for the respective two wells on the culture plate. The viable cell count is the total cell count minus the count of dead cells stained with trypan blue. The viable cell percentage is the percentage of viable cells among all the cells including dead cells. The viral antigen-positive cell percentage is the percentage of cells indicating antigen expression as found among all the cells including dead cells.

[2] = in vivo; settings: mouse, po
[3] = continuous addition, after 4 days
[4] = continuous addition, after 7 days
[5] = continuous addition, after 10 days
[6] = continuous addition, after 20 days
[7] = continuous addition, after 30 days

CC1COc2c(N3CCN(C)CC3)c(F)cc3c(=O)c(C(=O)O)cn1c23 (racemic) [OFLX, (±)-9-fluoro-3-methyl-10-(4-methyl-1-piperazinyl)-7-oxo-2,3-dihydro-7H-pyrido[1,2,3-de][1,4]benzoxazine-6-carboxylic acid]
Viable cell count ([1]; 4-day addition, after 7 days): 63 × 10⁴ cells/ml
Viral antigen-positive cell percentage ([1]; 4-day addition, after 7 days): 63%
Viable cell count ([1]; 4-day addition, after 10 days): 280 × 10⁴ cells/ml
Viral antigen-positive cell percentage ([1]; 4-day addition, after 10 days): 40%
Viable cell count ([1]; 4-day addition, after 20 days): 310 × 10⁴ cells/ml
Viral antigen-positive cell percentage ([1]; 4-day addition, after 20 days): 14%
Viable cell count ([1]; 4-day addition, after 30 days): 320 × 10⁴ cells/ml
Viral antigen-positive cell percentage ([1]; 4-day addition, after 30 days): 3%
Viable cell count [1, 3]: 280 × 10⁴ cells/ml
Viral antigen-positive cell percentage [1, 3]: 78%
Viable cell count [1, 4]: 55 × 10⁴ cells/ml
Viral antigen-positive cell percentage [1, 4]: 72%
Viable cell count [1, 5]: 130 × 10⁴ cells/ml
Viral antigen-positive cell percentage [1, 5]: 43%
Viable cell count [1, 6]: 290 × 10⁴ cells/ml
Viral antigen-positive cell percentage [1, 6]: 9%
Viable cell count [1, 7]: 390 × 10⁴ cells/ml
Viral antigen-positive cell percentage [1, 7]: 6%
viability at 1 µg/mL ([1]; 96 h, read-out: Viable cell percentage, 1 mcg/ml, 4-day addition, after 4 days): 96%
viability at 1 µg/mL ([1]; 96 h, read-out: Viable cell percentage, 1 mcg/ml, continuous addition, after 4 days): 94%
viability at 2.5 µg/mL ([1]; 96 h, read-out: Viable cell percentage, 2.5 mcg/ml, 4-day addition, after 4 days): 96%
viability at 2.5 µg/mL ([1]; 96 h, read-out: Viable cell percentage, 2.5 mcg/ml, continuous addition, after 4 days): 94%
viability at 5 µg/mL ([1]; 96 h, read-out: Viable cell percentage, 5 mcg/ml, 4-day addition, after 4 days): 93%
viability at 5 µg/mL ([1]; 96 h, read-out: Viable cell percentage, 5 mcg/ml, continuous addition, after 4 days): 98%
viability at 10 µg/mL ([1]; 96 h, read-out: Viable cell percentage, 10 mcg/ml, 4-day addition, after 4 days): 94%
viability at 10 µg/mL ([1]; 96 h, read-out: Viable cell percentage, 10 mcg/ml, continuous addition, after 4 days): 95%
viability at 1 µg/mL ([1]; 168 h, read-out: Viable cell percentage, 1 mcg/ml, continuous addition, after 7 days): 55%
viability at 2.5 µg/mL ([1]; 168 h, read-out: Viable cell percentage, 2.5 mcg/ml, continuous addition, after 7 days): 64%
viability at 5 µg/mL ([1]; 168 h, read-out: Viable cell percentage, 5 mcg/ml, continuous addition, after 7 days): 64%
viability at 10 µg/mL ([1]; 168 h, read-out: Viable cell percentage, 10 mcg/ml, continuous addition, after 7 days): 66%
viability at 1 µg/mL ([1]; 240 h, read-out: Viable cell percentage, 1 mcg/ml, continuous addition, after 10 days): 42%
viability at 2.5 µg/mL ([1]; 240 h, read-out: Viable cell percentage, 2.5 mcg/ml, continuous addition, after 10 days): 81%
viability at 5 µg/mL ([1]; 240 h, read-out: Viable cell percentage, 5 mcg/ml, continuous addition, after 10 days): 87%
viability at 10 µg/mL ([1]; 240 h, read-out: Viable cell percentage, 10 mcg/ml, continuous addition, after 10 days): 87%
viability at 1 µg/mL ([1]; 480 h, read-out: Viable cell percentage, 1 mcg/ml, continuous addition, after 20 days): 75%
viability at 2.5 µg/mL ([1]; 480 h, read-out: Viable cell percentage, 2.5 mcg/ml, continuous addition, after 20 days): 94%
viability at 5 µg/mL ([1]; 480 h, read-out: Viable cell percentage, 5 mcg/ml, continuous addition, after 20 days): 95%
viability at 10 µg/mL ([1]; 480 h, read-out: Viable cell percentage, 10 mcg/ml, continuous addition, after 20 days): 92%
viability at 1 µg/mL ([1]; read-out: Viable cell percentage, 1 mcg/ml, 4-day addition, after 7 days): 53%
viability at 1 µg/mL ([1]; read-out: Viable cell percentage, 1 mcg/ml, 4-day addition, after 10 days): 21%
viability at 1 µg/mL ([1]; read-out: Viable cell percentage, 1 mcg/ml, 4-day addition, after 20 days): 87%
viability at 1 µg/mL ([1]; read-out: Viable cell percentage, 1 mcg/ml, 4-day addition, after 30 days): 37%
viability at 1 µg/mL ([1]; read-out: Viable cell percentage, 1 mcg/ml, continuous addition, after 30 days): 33%
viability at 2.5 µg/mL ([1]; read-out: Viable cell percentage, 2.5 mcg/ml, 4-day addition, after 7 days): 67%
viability at 2.5 µg/mL ([1]; read-out: Viable cell percentage, 2.5 mcg/ml, 4-day addition, after 10 days): 67%
viability at 2.5 µg/mL ([1]; read-out: Viable cell percentage, 2.5 mcg/ml, 4-day addition, after 20 days): 95%
viability at 2.5 µg/mL ([1]; read-out: Viable cell percentage, 2.5 mcg/ml, 4-day addition, after 30 days): 97%
viability at 2.5 µg/mL ([1]; read-out: Viable cell percentage, 2.5 mcg/ml, continuous addition, after 30 days): 97%
viability at 5 µg/mL ([1]; read-out: Viable cell percentage, 5 mcg/ml, 4-day addition, after 7 days): 59%
viability at 5 µg/mL ([1]; read-out: Viable cell percentage, 5 mcg/ml, 4-day addition, after 10 days): 77%
viability at 5 µg/mL ([1]; read-out: Viable cell percentage, 5 mcg/ml, 4-day addition, after 20 days): 86%
viability at 5 µg/mL ([1]; read-out: Viable cell percentage, 5 mcg/ml, 4-day addition, after 30 days): 97%
viability at 5 µg/mL ([1]; read-out: Viable cell percentage, 5 mcg/ml, continuous addition, after 30 days): 94%
viability at 10 µg/mL ([1]; read-out: Viable cell percentage, 10 mcg/ml, 4-day addition, after 7 days): 73%
viability at 10 µg/mL ([1]; read-out: Viable cell percentage, 10 mcg/ml, 4-day addition, after 10 days): 85%
viability at 10 µg/mL ([1]; read-out: Viable cell percentage, 10 mcg/ml, 4-day addition, after 20 days): 92%
viability at 10 µg/mL ([1]; read-out: Viable cell percentage, 10 mcg/ml, 4-day addition, after 30 days): 95%
viability at 10 µg/mL ([1]; read-out: Viable cell percentage, 10 mcg/ml, continuous addition, after 30 days): 95%
LD50 [2]: 5450 mg/kg
